Assay results reported in paper PMC9014415, “Repositioning of a Diaminothiazole Series Confirmed to Target the Cyclin-Dependent Kinase CRK12 for Use in the Treatment of African Animal Trypanosomiasis” (Journal of Medicinal Chemistry, 2022).
Values joined by “and” are separate entries in the source; they are usually repeats but may differ in a detail not shown here. Identical values can stand only once. Like-named read-outs stand apart in the source and are kept apart here.

Legend:
[1] = Estimated EC99 used for PK/PD (parasite not stated); details: free blood level threshold
Text: Given promising in vivo efficacy data in mice (Table 1), compound 1 was progressed into cattle pharmacokinetic studies, dosing both IV and IM (Table 2, Figure S2, and Table S4). […] This low bioavailability was likely a consequence of poor compound release from the injection site following IM administration in cattle due to the low solubility of compound 1, probably leading to compound accumulation and precipitation at the injection site.

[2] = Pharmacokinetic studies in male Friesian-Holstein cattle, IV and IM (Ridgeway); assay type: in vivo; details: for Vd: read-out: Vdss
Experimental: 2.7 Pharmacokinetic studies in cattle (see Table 2). Studies conducted at Ridgeway Compound 1 was dosed IM at 5 mg free base/kg (dose volume 2mL/10 kg; dose vehicle 10% N-Methyl-2-Pyrrolidinone (NMP), 40% 2-pyrrolidinone, 30% PEG400, 20% deionized water) or IV at 2.5 mg free base/kg (dose volume 0.4 mL/10 kg; 2.5% NMP, 30% PEG400, 37.5% propylene glycol, 30% water by volume) to male ruminating Holstein-Friesian cross animals (n = 4). Blood samples were taken from each animal using 18-G needles into EDTA (K2) vacutainers before dosing and at […]
a cool box containing iced water and were processed within 2 h of collection (Figure S2, Table S1).
Compound 2 was dosed IM at 10 mg free base/kg (dose volume 2 mL/10 kg; dose vehicle 40% 0.3 M Acetate Buffer, 20% Kolliphor EL, 20% glycerol formal, 20% 2-pyrrolidone) or IV at 2 mg free base/kg (dose volume 0.4 mL/10 kg; 40% 0.3 M Acetate Buffer, 20% Kolliphor EL, 20% glycerol formal, 20% 2-pyrrolidone) to male ruminating Holstein-Friesian cross animals (n = 3). Blood samples were taken from each animal using 18-G needles into EDTA (K2) vacutainers before dosing […]
into a cool box containing iced water and were processed within 2 h of collection. […]

T. b. brucei = assay: Acute T. b. brucei efficacy in mice; assay type: in vivo, Trypanosoma brucei brucei; details: 3 mg/kg bid po for 4 days
Experimental: (citrate, fumarate and phosphate) (Figure 9). These alternative salt forms of compound 2 were prepared and formulated in the best vehicle determined by injection site tolerability analysis (0.3M sodium acetate buffer, Kolliphor EL, N-methyl pyrrolidone, 2-pyrrolidone, and 11% water suitable for injection). Rat IM pharmacokinetics was then carried out with each salt to determine the salt form to use for efficacy. None of these salt forms offered any improvement in rat IM pharmacokinetic profile over the free base in the tolerated vehicle (Figure S7).
3. In vivo efficacy studies
The T. congolense (IL3000) and T. vivax (ILRAD V34) cell lines7, 8, both originating from Kenya, were used in the following in vivo mouse studies. For studies in cattle, either Trypanosoma congolense (savannah) KONT 2/133, 224) or T. vivax STIB 719 was used.
3.1 Mouse efficacy studies for T. brucei brucei.
Mouse efficacy studies for T. brucei brucei were carried out as previously detailed.9 3.2 NMRI mouse efficacy studies for T. congolense and T. vivax.
Mouse models of infections were carried out using standardized protocols. Briefly, 1 mL samples of cryopreserved T. congolense, or T. vivax-infected blood harvested directly from an infected mouse, were diluted with Hanks Balanced Salt Solution plus 20 mM glucose (HBSS+G) to 5 x 10^4 trypomastigotes/mL (5 x 105 for T. vivax). […]

[3] = Comparative cattle PK, IM compared to SC (NorthWest Biopharm); assay type: in vivo; details: Aberdeen Angus crossbreed and Limousin crossbreed, bovine, blood, 5 mg/kg free base
Experimental: Kolliphor EL, N-methyl pyrrolidone, 2-pyrrolidone and 11% water suitable for injection) […]
Comparative cattle PK (Northwestern Biopharm)
The pharmacokinetics for compound 2 when dosed as free base in the best tolerated formulation: […]
Kolliphor EL, N-methyl pyrrolidone, 2-pyrrolidone and 11% water at 5 mg/kg was assessed, IM
compared to SC. Bioanalysis of blood
samples was conducted at the University of Dundee. […]

[4] = cattle, IM 5 mg/kg, individual animals 2754, 7462, 1753, 6752
[5] = cattle, IM 5 mg/kg, n = 4, mean
[6] = cattle, IV 2.5 mg/kg, individual animals 2754, 7462, 1753, 6752, 2.5 mg/kg
[7] = male, Holstein-Friesian cross, bovine, blood, im, 5 mg/kg, cattle, IM 5 mg/kg, individual animals 2754, 7462, 1753, 6752
[8] = cattle, IM 10 mg/kg, individual animals 1644, 3646, 7643
[9] = cattle, IM 10 mg/kg, n = 3, mean
[10] = cattle, IV 2 mg/kg, individual animals 1644, 3646, 7643, 2 mg/kg
[11] = cattle, IV 2 mg/kg, n = 3, mean, 2 mg/kg
[12] = male, Holstein-Friesian cross, bovine, blood, im, 10 mg/kg, cattle, IM 10 mg/kg, individual animals 1644, 3646, 7643
[13] = male, Holstein-Friesian cross, bovine, blood, im, 10 mg/kg, cattle, IM 10 mg/kg, n = 3, mean
[14] = male, Holstein-Friesian cross, bovine, blood, iv, 2 mg/kg, cattle, IV 2 mg/kg, individual animals 1644, 3646, 7643
[15] = male, Holstein-Friesian cross, bovine, blood, iv, 2 mg/kg, cattle, IV 2 mg/kg, n = 3, mean

CC(C)CS(=O)(=O)N[C@H]1CC[C@H](Nc2nc(N)c(C(=O)c3c(F)cccc3F)s2)CC1 [Compound 1, N-((trans)-4-((4-Amino-5-(2,6-difluorobenzoyl)thiazol-2-yl)amino)cyclohexyl)-2-methylpropane-1-sulfonamide]
estimated EC99 [1]: 1.6 ng/mL
AUC 0-∞ [2, 4]: 26,000 ng-min/mL and 15,000 ng-min/mL and 22,000 ng-min/mL
Cmax [2, 4]: 70 ng/mL and 128 ng/mL and 118 ng/mL and 216 ng/mL
F [2, 4]: 11% and 7% (2×)
Tmax [2, 4]: 0.25 h
Cmax [2, 5]: 130 ± 60 ng/mL
F [2, 5]: 8.8 ± 2.1%
AUC 0-∞ [2, 6]: 120,000 ng-min/mL (2×) and 160,000 ng-min/mL
Clb [2, 6]: 24 mL/min/kg and 20 mL/min/kg and 21 mL/min/kg and 15 mL/min/kg
Vdss [2, 6]: 3.5 L/kg and 1.8 L/kg and 2.5 L/kg and 1.7 L/kg
half-life [2, 6]: 1.7 h and 2.4 h
Clb ([2]; cattle, IV 2.5 mg/kg, n = 4, mean ± SD): 20 ± 4 mL/min/kg
AUC(0-inf) [2, 7]: 350 ng·h/mL
bioavailability [2, 7]: 10%
Tmax ([2]; male, Holstein-Friesian cross, bovine, blood, im, 5 mg/kg, cattle, IM 5 mg/kg, individual animals 2754, 7462, 1753, 6752, read-out: Tmax): 0.5 h
bioavailability ([2]; male, Holstein-Friesian cross, bovine, blood, im, 5 mg/kg, cattle, IM 5 mg/kg, n = 4, mean): 9%
Cmax ([2]; male, Holstein-Friesian cross, bovine, blood, im, 5 mg/kg, cattle, IM 5 mg/kg, n = 4, mean, read-out: Cmax): 133 ng/mL
AUC(0-inf) ([2]; male, Holstein-Friesian cross, bovine, blood, iv, 2.5 mg/kg, cattle, IV 2.5 mg/kg, individual animals 2754, 7462, 1753, 6752): 1670 ng·h/mL
half-life ([2]; male, Holstein-Friesian cross, bovine, blood, iv, 2.5 mg/kg, cattle, IV 2.5 mg/kg, individual animals 2754, 7462, 1753, 6752, read-out: Half-life (converted)): 1.2 h
AUC(0-inf) ([2]; male, Holstein-Friesian cross, bovine, blood, iv, 2.5 mg/kg, cattle, IV 2.5 mg/kg, n = 4, mean ± SD): 2170 ng·h/mL
half-life ([2]; male, Holstein-Friesian cross, bovine, blood, iv, 2.5 mg/kg, cattle, IV 2.5 mg/kg, n = 4, mean ± SD, read-out: half-life (converted)): ~1.8 h
AUC(0-t) ([2]; male, Holstein-Friesian cross, bovine, blood, cattle, IM 5 mg/kg, mean, read-out: AUC0-8 (converted)): 349 ng·h/mL
AUC(0-inf) ([2]; male, Holstein-Friesian cross, bovine, whole blood, im, 5 mg/kg, cattle, IM 5 mg/kg, n = 4, mean ± SD): 350 ng·h/mL
Tmax ([2]; male, Holstein-Friesian cross, bovine, whole blood, im, 5 mg/kg, cattle, IM 5 mg/kg, n = 4, mean ± SD, read-out: Tmax): 0.44 ± 0.13 h
Vd ([2]; male, Holstein-Friesian cross, bovine, whole blood, iv, 2.5 mg/kg, cattle, IV 2.5 mg/kg, n = 4, mean ± SD): 2.4 ± 0.8 L/kg
Acute T. b. brucei efficacy in mice (T. b. brucei): Cures 3 mg/kg bid po for 4 days

CC(C)CS(=O)(=O)N[C@H]1CC[C@H](Nc2nc(N)c(C(=O)c3c(F)cc(CN(C)C)cc3F)s2)CC1 [Compound 2, N-(trans)-[4-[[4-Amino-5-[4-(dimethylaminomethyl)-2,6-difluoro-benzoyl]thiazol-2-yl]amino]cyclohexyl]-2-methyl-propane-1-sulfonamide]
Cav ([2]; Friesian cattle, single IM 10 mg free base/kg): 253 ng/mL
AUC 0-∞ [2, 8]: 510,000 ng-min/mL and 460,000 ng-min/mL
Cmax [2, 8]: 950 ng/mL and 1,700 ng/mL and 2,600 ng/mL
F [2, 8]: 75% and 66%
AUC 0-∞ [2, 9]: 500,000 ± 30,000 ng-min/mL
Cmax [2, 9]: 1700 ± 800 ng/mL
F [2, 9]: 73 ± 6%
Tmax [2, 9]: 1.3 ± 0.6 h
Injection site tolerability ([2]; cattle, IM, pharmacokinetic study): irritancy and necrosis
AUC 0-∞ [2, 10]: 94,000 ng-min/mL and 180,000 ng-min/mL
Clb [2, 10]: 14 mL/min/kg and 21 mL/min/kg and 11 mL/min/kg
half-life [2, 10]: 3 h
AUC 0-∞ [2, 11]: 140,000 ± 40,000 ng-min/mL
Clb [2, 11]: 15 mL/min/kg and 15 ± 5 mL/min/kg
Vdss [2, 11]: 2.3 ± 0.6 L/kg
AUC ([2]; male, Holstein-Friesian cross, bovine, blood, 10 mg/kg, Friesian cattle, single IM 10 mg free base/kg): 7330 ng·h/mL
AUC(0-inf) [2, 12]: 8830 ng·h/mL
bioavailability [2, 12]: 78%
Tmax ([2]; male, Holstein-Friesian cross, bovine, blood, im, 10 mg/kg, cattle, IM 10 mg/kg, individual animals 1644, 3646, 7643, read-out: Tmax): 2 h
AUC(0-inf) [2, 13]: 8170 ng·h/mL
bioavailability [2, 13]: 74%
Cmax ([2]; male, Holstein-Friesian cross, bovine, blood, im, 10 mg/kg, cattle, IM 10 mg/kg, n = 3, mean, read-out: Cmax): 1720 ng/mL
Tmax ([2]; male, Holstein-Friesian cross, bovine, blood, im, 10 mg/kg, cattle, IM 10 mg/kg, n = 3, mean, read-out: Tmax): 1 h
concentration at 24 h ([2]; male, Holstein-Friesian cross, bovine, blood, intramuscular, Friesian cattle, single IM 10 mg free base/kg, read-out: Cmin (24 h)): 20 ng/mL
AUC(0-inf) [2, 14]: 2330 ng·h/mL
half-life ([2]; male, Holstein-Friesian cross, bovine, blood, iv, 2 mg/kg, cattle, IV 2 mg/kg, individual animals 1644, 3646, 7643, read-out: Half-life (converted)): 6 h
Vd [2, 14]: 2 L/kg
AUC(0-inf) [2, 15]: 2170 ng·h/mL
Vd [2, 15]: 3 L/kg
half-life ([2]; male, Holstein-Friesian cross, bovine, whole blood, iv, 2 mg/kg, cattle, IV 2 mg/kg, n = 3, mean, read-out: half-life (converted)): 4 ± 2 h
AUC ([3]; IM): 3170 ng·h/mL
Cmax ([3]; IM): 360 ng/mL
Tmax ([3]; IM): 0.5 h
AUC ([3]; SC): 967 ng·h/mL
Cmax ([3]; SC): 86 ng/mL
Tmax ([3]; SC): 3 h
